According to US20080300298A1, “Honokiol Derivates For the Treatment of Proliferative Disorders” (priority 2005, published 2008):

What was measured:
[1] = tested on: NF-kB-regulated gene products in H1299 cells; assay: Western blot of TNF-induced NF-kB-regulated gene products; format: cell-based, human
Protocol: (A) Honokiol inhibits COX-2, MMP-9, ICAM-1, and VEGF expression induced by TNF. H1299 cells (2×10^6/ml) were left untreated or incubated with […] honokiol for 12 h and then treated with 0.1 nM TNF for different times. Whole-cell extracts were prepared, and […] of the whole-cell lysate was analyzed by Western blotting using antibodies against VEGF, MMP-9, and COX-2. (B) Honokiol inhibits cyclin D1 and c-myc expression induced by TNF. H1299 cells (2×10^6/ml) were left untreated or incubated with […] honokiol for 12 h and then treated with 0.1 nM TNF for different times. Whole-cell extracts were prepared, and […] of the whole-cell lysate was analyzed by Western blotting using antibodies against cyclin D1 and c-myc. […] (C) Honokiol inhibits the expression of anti-apoptotic gene products cIAP1, cIAP2 Bcl-x1, Bcl-2, cFLIP, TRAF2, and survivin. H1299 cells (2×10^6/ml) were left untreated or incubated with […] honokiol for 12 h and then treated with 0.1 nM TNF for different times. Whole-cell extracts were prepared, and […] of the whole-cell lysate was analyzed by Western blotting using antibodies against IAP1, IAP2, bcl-x1, bcl-2, cFLIP, and survivin as indicated.
Western blot analysis. […] Cytoplasmic protein […] was resolved on 10% SDS-PAGE gel, transferred to a nitrocellulose membrane, blocked with 5% non-fat milk, and probed with specific antibodies against IkBa, posphorylated IkBa, p65, and phosphorylated p65. To determine the expression of cyclin D1, COX-2, MMP-9, cIAP-1, TRAF1, Bcl-2, Bfl-1, cFLIP, and survivin in whole-cell extracts of treated cells (2×10^6 cells in 2 ml of medium), […] of protein was resolved on SDS-PAGE and probed by Western blot with specific antibodies as per the manufacturer's recommended protocol. The blots were washed, exposed to HRP-conjugated secondary antibodies for 1 h, and finally detected by ECL reagent (Amersham Pharmacia Biotechnology, Piscataway, N.J.). The bands were quantified using a Personal Densitometer Scan v1.30 using Imagequant software version 3.3 (Molecular Dynamics). […]

HUVEC = assay: In Vitro Angiogenesis Assay (tube formation); format: cell-based, human; conditions: 8 ug/ml, 6 h
SU-DHL-4 cells = assay: induction of apoptosis; format: cell-based; conditions: cells resistant to doxorubicin and As2O3-induced apoptosis; without activation of caspase 3
From the text: However, in contrast to the complete block of As2O3-induced apoptosis by z-VAD-fmk, inhibition of HNK-induced apoptosis by z-VAD-fmk was only partial, evidenced by PARP cleavage and APO2.7 assay (FIGS. 7B and D).
HNK induces apoptosis in SU-DHL4 cells, which express low levels of caspase-8 and -3 and are resistant to doxorubicin, As2O3, melphalan, dexamethasone, bortezomib (Chauhan et al. Cancer Res. 2003; 63:6174-6177), and revlimid. Therefore, agents such as HNK which kill MM cells via both caspase-dependent and caspase-independent pathways may be particularly useful to overcome drug resistance.

MDA-MB-231 cells = assay: Cell cycle assay (PI); format: cell-based; conditions: 24 hours (control 26%)
Protocol: (§1) Cell cycle assays: 5×10^6 cells were cultured in the appropriate culture media containing 10% FCS, and treated with either control vehicle or various concentrations of HNK as indicated for 24 h. Following treatment, the cells were harvested, fixed in methanol and stained with propidium iodide (PI, Abcam, Cambridge, Mass.). Flow cytometry was performed at the Flow Cytometry Core facility of Cedars-Sinai Medical Center, using FACScan (Becton Dickinson, Franklin Lakes, N.J.).
(§2) HNK slows cell cycle in breast cancer cell lines. The effects of HNK (10 μM or 30 μM HNK for 24 hours) on cell cycle were evaluated in MCF-7 and MDA-MB-231 cells. These doses of HNK are less than the LC50 for both cell lines. […] Expression of proteins involved in G1 cell-cycle regulation (massgue) was examined in MDA-MB-231 cells using Western analysis.

MCF-7 cells = assay: Cell cycle assay (PI); format: cell-based; conditions: 24 hours (control 26%)
Protocol: as §1, §2

## C=CCc1ccc(O)c(-c2ccc(O)c(CC=C)c2)c1 [HNK, Honokiol]
[1]; H1299
  TNF-induced expression of VEGF, COX-2, ICAM-1 and MMP-9: abolished the expression
  TNF-induced expression of cyclin D1 and c-myc: abolished, in a time-dependent fashion, the TNF-induced expression of cyclin D1 and c-myc
[1]; cIAP1, cIAP-2, BCl-2, Bcl-xL, cFLIP, TRAF1, and survivin
  TNF-induced expression of anti-apoptotic gene products: inhibited the TNF-induced expression of all of these proteins
HUVEC
  tube formation by endothelial cells: significantly inhibited the tube formation
SU-DHL-4 cells
  apoptosis in SU-DHL-4 cells: induced apoptosis in SU-DHL-4 cells
MDA-MB-231 cells; MDA-MB-231, 10 μM
  cells in S-phase: 15%
MDA-MB-231 cells; MDA-MB-231, 30 μM
  cells in S-phase: 10%
MCF-7 cells; MCF-7, 10 μM
  cells in S-phase: 20%
MCF-7 cells; MCF-7, 30 μM
  cells in S-phase: 20%
